This data set in a line: Inhibitors of Cruzain: PBS Stability Profiling Assay. The note with it: PBS pH 7 stability, 37 C, LC-MS/MS, 48 h; at 2 µM; hits give high values. From the text:
Chagas Disease is a neglected tropical disease that affects over 16 million people in Latin America. The cysteine protease cruzain is essential for the survival Trypanosoma cruzi, the parasitic agent responsible for Chagas disease. Potential intervention for T. cruzi includes the inhibition of cruzain. This bioassay will summarize the ongoing development of small molecule cruzain inhbitiors. Currently, a screen of ~200k compounds and through extensive follow-up work a probe was identified. To further characterize the probe, it was tested in in vitro ADME assays. The stability of the lead compound in PBS buffer is tested because this parameter has a significant impact on many ADME-concerned properties of drugs, such as uptake, distribution, transport, and eventually bioavailability. NIH Chemical Genomics Center [NCGC] NIH Molecular Libraries Probe Production Centers Network [MLPCN] MLSCN Grant: DA024891-01 PI Name: Dr. Brian Shoichet; University of California, San Francisco
2uM of compound is incubated in PBS buffer at pH 7; the reference compound is procaine. Compounds are incubated at 37 deg C for the pre-determined time periods and the when aliquots are removed. Samples are analyzed with LC-MS/MS.

As for `Cc1ccc(OCCn2c(CCNC(=O)C3CCCCC3)nc3ccccc32)cc1`, the percent remaining was 100%.

(Values after PubChem BioAssay AID504752 (National Center for Advancing Translational Sciences (NCATS), 2011).)
